{
  "source": "paper doi:10.1101/2025.05.10.653276",
  "about": "(bioRxiv, 2025)",
  "key": {"in vitro": {"experiment": "in vitro", "details": "human"}, "B. ovis [1]": {"test_system": "B. ovis", "experiment": "microbe, parasite or virus in culture", "format": "cell-based, Brucella ovis", "details": "for pIC50: Brucella ovis"}, "B. ovis [2]": {"test_system": "B. ovis", "experiment": "microbe, parasite or virus in culture", "format": "cell-based", "details": "Brucella ovis"}, "B. abortus [3]": {"test_system": "B. abortus", "experiment": "microbe, parasite or virus in culture", "format": "cell-based", "details": "Brucella abortus, THP-1, 48 h, read-out: IC50, intracellular B. abortus"}, "B. abortus [4]": {"test_system": "B. abortus", "format": "cell-based, Brucella abortus"}, "THP-1 cells [5]": {"test_system": "THP-1 cells"}, "B. ovis [6]": {"test_system": "B. ovis", "format": "cell-based, Brucella ovis"}, "B. abortus [7]": {"test_system": "B. abortus", "experiment": "microbe, parasite or virus in culture", "format": "cell-based, Brucella abortus", "details": "for pIC50: Brucella abortus, 48 h, read-out: IC50, axenic B. abortus WT (Fig. S6B)"}, "B. ovis [8]": {"test_system": "B. ovis", "format": "cell-based, Brucella ovis", "remark": "listed apart in the source"}, "B. abortus [9]": {"test_system": "B. abortus", "format": "cell-based, Brucella abortus", "remark": "listed apart in the source"}, "B. ovis [10]": {"test_system": "B. ovis", "format": "cell-based, Brucella ovis", "remark": "listed apart in the source"}, "THP-1 cells [11]": {"test_system": "THP-1 cells", "format": "cell-based, human"}, "L-type Ca^2+ channels": {"test_system": "L-type Ca^2+ channels", "details": "read-out: Reported IC50 for L-type Ca^2+ channels; cited from earlier work"}, "[12]": {"details": "THP-1, read-out: Intracellular IC50"}, "[13]": {"details": "48 h, read-out: IC50, axenic B. ovis growth"}, "[14]": {"details": "THP-1, 48 h, read-out: IC50, intracellular B. ovis growth"}},
  "note": "pIC50: −log10 of the molar value. Like-named read-outs stand apart in the source and are kept apart here.",
  "data": [
    {"compound": "COc1ccc(CN2CCN(C(c3ccc(F)cc3)c3ccc(F)cc3)CC2)c(OC)c1OC", "note": "[Lomerizine]", "values": [
      {"measurement": "CC50", "setting": "in vitro", "result": 50, "unit": "µM"},
      {"measurement": "pIC50", "setting": "B. ovis [1]; read-out: Axenic IC50", "result": "< 4.30"},
      {"measurement": "pIC50", "setting": "B. ovis [2]; [12]", "result": 5.05}
    ]},
    {"compound": "CCOc1ccc(NC(C)=O)cc1", "note": "[Phenacetin]", "values": [
      {"measurement": "CC50", "setting": "in vitro", "result": "> 50", "unit": "µM"},
      {"measurement": "pIC50", "setting": "B. ovis [1]; read-out: Axenic IC50", "result": "< 4.30"},
      {"measurement": "pIC50", "setting": "B. ovis [2]; [12]", "result": "< 4.30"}
    ]},
    {"compound": "COCCOC(=O)C1=C(C)NC(C)=C(C(=O)OC/C=C/c2ccccc2)C1c1cccc([N+](=O)[O-])c1", "note": "(stereo not shown) [Cilnidipine]", "values": [
      {"measurement": "pIC50", "setting": "B. abortus [3]", "result": 4.87},
      {"measurement": "CC50", "setting": "in vitro", "result": "> 50", "unit": "µM"},
      {"measurement": "CFU recovery of ΔbepE B. abortus relative to wild-type in treated THP-1 cells", "setting": "B. abortus [4]", "result": "significant reduction in CFU recovery"},
      {"measurement": "Host cytotoxicity in B. ovis-infected THP-1 cells", "setting": "THP-1 cells [5]", "result": "not due to host cytotoxicity"},
      {"measurement": "Concentrations inhibiting B. ovis growth in complex liquid broth", "setting": "B. ovis [1]", "result": "above 5 μM"},
      {"measurement": "pIC50", "setting": "B. ovis [1]; [13]", "result": 5.29},
      {"measurement": "pIC50", "setting": "B. ovis [1]; read-out: Axenic IC50", "result": 5.30},
      {"measurement": "Growth of WT B. ovis in liquid culture (kinetic growth assay)", "setting": "B. ovis [6]", "result": "failed to grow"},
      {"measurement": "Sensitivity of WT and ΔbepE B. abortus in axenic conditions", "setting": "B. abortus [7]", "result": "insensitive"},
      {"measurement": "pIC50", "setting": "B. abortus [7]", "result": "< 4.60"},
      {"measurement": "pIC50", "setting": "B. ovis [2]; [14]", "result": 5.60},
      {"measurement": "pIC50", "setting": "B. ovis [2]; [12]", "result": 5.70}
    ]},
    {"compound": "CCCCCCCCCCCCOS(=O)(=O)[O-].[Na+]", "note": "[SDS, sodium dodecyl sulfate]", "values": [
      {"measurement": "Sensitivity of WT B. ovis on TSA blood plates", "setting": "B. ovis [8]", "result": "highly sensitive"}
    ]},
    {"compound": "c1ccc(-c2ccc(C(c3ccccc3)n3ccnc3)cc2)cc1", "note": "(stereo not shown) [Bifonazole]", "values": [
      {"measurement": "CC50", "setting": "in vitro", "result": "> 50", "unit": "µM"},
      {"measurement": "pIC50", "setting": "B. ovis [1]; read-out: Axenic IC50", "result": 5.40},
      {"measurement": "pIC50", "setting": "B. ovis [2]; [12]", "result": 4.85}
    ]},
    {"compound": "OCCN(CCO)c1nc(N2CCCCC2)c2nc(N(CCO)CCO)nc(N3CCCCC3)c2n1", "note": "[Dipyridamole]", "values": [
      {"measurement": "CC50", "setting": "in vitro", "result": 41, "unit": "µM"},
      {"measurement": "pIC50", "setting": "B. ovis [1]; read-out: Axenic IC50", "result": "< 4.30"},
      {"measurement": "pIC50", "setting": "B. ovis [2]; [12]", "result": "< 4.30"}
    ]},
    {"compound": "CC(=O)SCC(Cc1ccccc1)C(=O)NCC(=O)OCc1ccccc1", "note": "(stereo not shown) [Racecadotril]", "values": [
      {"measurement": "CC50", "setting": "in vitro", "result": "> 50", "unit": "µM"},
      {"measurement": "pIC50", "setting": "B. ovis [1]; read-out: Axenic IC50", "result": "< 4.30"},
      {"measurement": "pIC50", "setting": "B. ovis [2]; [12]", "result": "< 4.30"}
    ]},
    {"compound": "C[C@H](CCC(=O)O)[C@H]1CC[C@H]2[C@@H]3CC[C@@H]4C[C@H](O)CC[C@]4(C)[C@H]3C[C@H](O)[C@]12C", "note": "[deoxycholate]", "values": [
      {"measurement": "Growth of WT B. abortus on solid media", "setting": "B. abortus [9]", "result": "modestly impaired WT growth"},
      {"measurement": "Growth of ΔbepE B. abortus on solid media", "setting": "B. abortus [9]", "result": "unable to grow"},
      {"measurement": "Sensitivity of WT B. ovis on TSA blood plates", "setting": "B. ovis [8]", "result": "highly sensitive"},
      {"measurement": "IC50 (B. abortus strain WT)", "setting": "B. abortus [7]", "result": 0.067, "unit": "%"},
      {"measurement": "IC50 (B. abortus strain ΔbepE glmS::bepDE)", "setting": "B. abortus [7]", "result": 0.052, "unit": "%"},
      {"measurement": "IC50 (B. abortus strain ΔbepE)", "setting": "B. abortus [7]", "result": 0.021, "unit": "%"}
    ]},
    {"compound": "O=C1CCc2ccc(OCCCCN3CCN(c4cccc(Cl)c4Cl)CC3)cc2N1", "note": "[Aripiprazole]", "values": [
      {"measurement": "CC50", "setting": "in vitro", "result": 12, "unit": "µM"}
    ]},
    {"compound": "N[C@@H]1C[C@H]1c1ccccc1", "note": "(racemic) [Tranylcypromine]", "values": [
      {"measurement": "CC50", "setting": "in vitro", "result": "> 50", "unit": "µM"},
      {"measurement": "pIC50", "setting": "B. ovis [1]; read-out: Axenic IC50", "result": "< 4.30"},
      {"measurement": "pIC50", "setting": "B. ovis [2]; [12]", "result": "< 4.30"}
    ]},
    {"compound": "COc1ccc(CCN(C)CCCC(C#N)(c2ccc(OC)c(OC)c2)C(C)C)cc1OC", "note": "(stereo not shown) [verapamil]", "values": [
      {"measurement": "Hit in B. ovis intracellular screen", "setting": "B. ovis [10]", "result": "neither compound emerged as a hit"}
    ]},
    {"compound": "CCCCN(CCCC)CCC(O)c1cc2c(Cl)cc(Cl)cc2c2cc(C(F)(F)F)ccc12", "note": "(stereo not shown) [Halofantrine]", "values": [
      {"measurement": "CC50", "setting": "in vitro", "result": "> 50", "unit": "µM"},
      {"measurement": "pIC50", "setting": "B. ovis [1]; read-out: Axenic IC50", "result": 4.96},
      {"measurement": "pIC50", "setting": "B. ovis [2]; [12]", "result": "< 4.30"}
    ]},
    {"compound": "COC(=O)C1=C(C)NC(C)=C(C(=O)OCCN(C)Cc2ccccc2)C1c1cccc([N+](=O)[O-])c1", "note": "(stereo not shown) [Nicardipine]", "values": [
      {"measurement": "pIC50", "setting": "B. abortus [3]", "result": 5.36},
      {"measurement": "CC50", "setting": "in vitro", "result": 49, "unit": "µM"},
      {"measurement": "WT B. abortus CFUs recovered from treated THP-1 cells compared to untreated controls", "setting": "B. abortus [4]", "result": "significantly fewer"},
      {"measurement": "Host cytotoxicity in B. ovis-infected THP-1 cells", "setting": "THP-1 cells [5]", "result": "not due to host cytotoxicity"},
      {"measurement": "Effect on terminal density of B. ovis in axenic culture", "setting": "B. ovis [1]", "result": "did not affect the terminal density"},
      {"measurement": "pIC50", "setting": "B. ovis [1]; [13]", "result": "< 4.60"},
      {"measurement": "pIC50", "setting": "B. ovis [1]; read-out: Axenic IC50", "result": "< 4.30"},
      {"measurement": "Growth of WT B. ovis in liquid culture (kinetic growth assay)", "setting": "B. ovis [6]", "result": "modest lag"},
      {"measurement": "Sensitivity of WT and ΔbepE B. abortus in axenic conditions", "setting": "B. abortus [7]", "result": "insensitive"},
      {"measurement": "pIC50", "setting": "B. abortus [7]", "result": "< 4.60"},
      {"measurement": "Increase in intracellular calcium and manganese levels", "setting": "THP-1 cells [11]", "result": "20–40%"},
      {"measurement": "pIC50", "setting": "B. ovis [2]; [14]", "result": 5.64},
      {"measurement": "pIC50", "setting": "B. ovis [2]; [12]", "result": 5.70},
      {"measurement": "pIC50", "setting": "L-type Ca^2+ channels", "result": "~4.60"}
    ]},
    {"compound": "C[C@H](CCC(=O)NCCC[N+](C)(C)CCCS(=O)(=O)[O-])[C@H]1CC[C@H]2[C@@H]3[C@H](O)C[C@@H]4C[C@H](O)CC[C@]4(C)[C@H]3C[C@H](O)[C@]12C", "note": "[CHAPS]", "values": [
      {"measurement": "Sensitivity of WT B. ovis on TSA blood plates", "setting": "B. ovis [8]", "result": "highly sensitive"}
    ]},
    {"compound": "COC(=O)C1=C(C)NC(C)=C(C(=O)OC)C1c1ccccc1[N+](=O)[O-]", "note": "[nifedipine]", "values": [
      {"measurement": "Hit in B. ovis intracellular screen", "setting": "B. ovis [10]", "result": "neither compound emerged as a hit"}
    ]}
  ]
}
